Where a name gives a salt, the structure may show the parent alone.
Target: T1, [3H]ifenprodil binding site, rat forebrain membranes (Rattus norvegicus, UniProt P35439+Q00960)
T1 construct: membrane fraction was prepared from frozen adult rat forebrains; tissue Zivic-Miller Laboratories, Inc; host or cells: adult rat forebrain, washed buffy coat membrane fraction
Assay: [3H]Ifenprodil binding assay
Conditions: 4 nM [3H]-ifenprodil, 2 hours at room temperature
Protocol: All buffers and reagents used in assay incubations or to dissolve drugs were prepared using water purified through a Milli-Q reverse osmosis system (Millipore Corp, Bedford, Mass.) and treated with UV emissions. Prior to use in the assays, buffers were further filtered through a sterile Corning filtration unit (Corning Glass Works, Corning, N.Y.) containing a 0.2-micron filter. Buffer used to rinse the membranes on the assay filters was prepared with purified water, but was not refiltered and was stored no longer than 5 days. Stock solutions of the drugs (usually 10 mM) were dissolved in 20 mM HEPES-KOH buffer pH 7.4 (assay buffer) with the addition of 1 to 5 μL of glacial AcOH, if needed to keep them in solution. For eliprodil the stock solution was buffered with the addition of 10% DMSO. All subsequent dilutions from stock were made in buffer.
An extensively washed buffy coat membrane fraction was prepared from frozen adult rat forebrains (Zivic-Miller Laboratories, Inc., Zelienople, Pa.) as described previously (Coughenour L. L., Cordon, J. J., J. Pharmacol. Exp. Ther., 1997;280:584-592) and stored at −80° C. On the day of the assay, pellets were resuspended in 35 mL of assay buffer at pH 7.4 using a Polytron setting 6. After incubation at 37° C. for 30 minutes in a shaking water bath, the homogenate was centrifuged 40,000×g for 10 minutes at 4° C. The pellets were resuspended in fresh buffer and centrifuged 3 more times before final suspension for use in the assay.
[^3H]Ifenprodil Binding. Triplicate incubations were carried out in a volume of 0.5 mL in 1.3 mL polypropylene tubes (Marsh Biomedical Products Inc., Rochester, N.Y.) for 2 hours at room temperature. Incubations contained test agents, membranes (100-200 μg protein) and 4 nM[^3H]-ifenprodil in 20 mM HEPES-KOH buffer, pH 7.4 (assay buffer). Assays were started by addition of the membranes. Bound radioligand was separated by filtration under reduced pressure using a Tomtec Mach II, 96-well cell harvester (Tomtec Inc., Orange, Colo.). Filtration was through Whatman GF/B glass fiber filters (Whatman Ltd, Maidstone, England), which had been soaked for at least 15 minutes in 0.3% polyethylenimine and allowed to air dry. The filters were rinsed with 3 mL of ice cold assay buffer within 6 seconds. Air was allowed to pass through the filters for an additional 10 seconds to remove residual moisture. The filter mat was supported on a cold (−20° C.) teflon support, and filters from individual wells were separated and placed in Mini Poly-Q vials (Beckman Instruments Inc., Fullerton, Calif.) and filled with 4 mL of scintillation cocktail (Beckman Ready Protein^+). Radioactivity retained on the filter was determined by liquid scintillation spectrophotometry. Nonspecific binding was defined as the binding in the presence of 1 mM ifenprodil. Specific binding was 90%.
Data analysis. Binding curves were statistically analyzed for a best one or two site competition fit using GraphPad Prism software (GraphPad Software Inc., San Diego, Calif.). The normalized data was fit by nonweighted nonlinear regression to either [formula]
Control data was entered as 100%, and no parameters were constrained. Inhibition curves were compared by ANOVA with post test comparisons of the logIC50 using Dunnett's multiple comparisons post test or Student's nonpaired, two-tailed t-test (GraphPad InStat software).

T1 sequence (Q00960 27-1482, other chains not shown): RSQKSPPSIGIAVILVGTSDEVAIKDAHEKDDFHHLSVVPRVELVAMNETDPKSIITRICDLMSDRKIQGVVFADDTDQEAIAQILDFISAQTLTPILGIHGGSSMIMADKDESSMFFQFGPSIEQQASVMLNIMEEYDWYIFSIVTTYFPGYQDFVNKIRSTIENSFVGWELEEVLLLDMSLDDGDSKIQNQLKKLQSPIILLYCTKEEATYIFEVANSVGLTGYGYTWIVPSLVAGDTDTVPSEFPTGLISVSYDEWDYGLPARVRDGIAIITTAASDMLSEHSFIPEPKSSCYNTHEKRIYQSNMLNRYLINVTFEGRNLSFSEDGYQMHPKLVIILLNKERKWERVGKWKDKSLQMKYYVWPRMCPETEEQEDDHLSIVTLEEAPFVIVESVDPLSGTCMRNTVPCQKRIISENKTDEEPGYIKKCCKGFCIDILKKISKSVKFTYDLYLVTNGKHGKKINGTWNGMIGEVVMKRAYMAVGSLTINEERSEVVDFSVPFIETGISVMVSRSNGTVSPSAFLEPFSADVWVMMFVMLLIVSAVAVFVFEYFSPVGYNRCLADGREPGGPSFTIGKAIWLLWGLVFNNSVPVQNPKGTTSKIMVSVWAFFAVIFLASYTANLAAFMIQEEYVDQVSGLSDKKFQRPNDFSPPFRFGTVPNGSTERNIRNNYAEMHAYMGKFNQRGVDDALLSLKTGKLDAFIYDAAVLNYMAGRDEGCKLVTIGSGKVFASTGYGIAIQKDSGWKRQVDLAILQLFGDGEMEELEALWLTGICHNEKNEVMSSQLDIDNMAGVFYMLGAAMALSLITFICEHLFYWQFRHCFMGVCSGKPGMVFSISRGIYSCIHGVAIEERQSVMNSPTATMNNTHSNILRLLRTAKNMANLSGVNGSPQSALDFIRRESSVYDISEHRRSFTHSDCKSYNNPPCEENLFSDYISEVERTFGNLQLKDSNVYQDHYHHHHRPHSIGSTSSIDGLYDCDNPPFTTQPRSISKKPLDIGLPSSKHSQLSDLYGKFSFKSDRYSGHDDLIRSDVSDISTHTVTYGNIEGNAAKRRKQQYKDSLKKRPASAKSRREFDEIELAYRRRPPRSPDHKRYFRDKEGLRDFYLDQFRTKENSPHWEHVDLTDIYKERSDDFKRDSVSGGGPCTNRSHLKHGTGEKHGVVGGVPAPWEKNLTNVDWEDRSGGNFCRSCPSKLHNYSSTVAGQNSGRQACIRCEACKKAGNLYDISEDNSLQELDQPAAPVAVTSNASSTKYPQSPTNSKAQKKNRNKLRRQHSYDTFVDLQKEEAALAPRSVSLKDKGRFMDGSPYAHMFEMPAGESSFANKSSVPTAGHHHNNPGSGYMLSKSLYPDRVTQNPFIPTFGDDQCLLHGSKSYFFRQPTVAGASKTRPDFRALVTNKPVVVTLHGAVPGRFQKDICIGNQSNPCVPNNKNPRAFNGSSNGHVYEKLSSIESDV

SMILES | IC50 [nM]
NC(=O)CN(CCCc1ccc(F)cc1)[C@H]1CC[C@H](c2ccc3[nH]c(=O)oc3c2)CC1 [Example 34, 2-{[3-(4-Fluorophenyl)propyl]-[4-(2-oxo-2,3-dihydro-benzoxazol-6-yl)-cyclohexyl]amino}acetamide] | 152
CN(CCCc1ccc(F)c(F)c1F)[C@H]1CC[C@H](c2ccc3[nH]c(=O)oc3c2)CC1 [Example 55, 6-(trans-4-{[3-(2,3,4-Trifluorophenyl)propyl]methylamino}cyclohexyl)-3H-benzoxazol-2-one] | 5
CN(CCCc1cc(F)cc(F)c1)[C@H]1CC[C@H](c2ccc3[nH]c(=O)oc3c2)CC1 [Example 39b, 6-(trans-{[3-(3,5-Difluorophenyl)propyl]methylamino}cyclohexyl)-3H-benzoxazol-2-one] | 37
CCN([C@H]1CC[C@H](c2ccc3[nH]c(=O)oc3c2)CC1)[C@H](C)CCc1ccccc1 [Example 27, 6-(trans-4-{Ethyl-[(R)-1-methyl-3-phenylpropyl]amino}cyclohexyl)-3H-benzoxazol-2-one] | 132
O=c1[nH]c2ccc([C@H]3CC[C@H](N(CCCc4ccc(F)cc4)Cc4ccoc4)CC3)cc2o1 [Example 31, 6-(trans-4-{[3-(4-Fluorophenyl)propyl]furan-3-ylmethylamino}cyclohexyl)-3H-benzoxazol-2-one] | 465
CN(CCCc1ccccc1F)[C@H]1CC[C@H](c2ccc3[nH]c(=O)oc3c2)CC1 [Example 46b, 6-(trans-4-{[3-(2-Fluorophenyl)propyl]methylamino}cyclohexyl)-3H-benzoxazol-2-one] | 9
O=c1[nH]c2ccc([C@H]3CC[C@H](N(CCO)CCCc4ccc(F)cc4)CC3)cc2o1 [Example 29, 6-{trans-4-[[3-(4-Fluorophenyl)propyl]-(2-hydroxyethyl)amino]cyclohexyl}-3H-benzoxazol-2-one] | 18
CN(CCCc1c(F)cc(F)cc1F)[C@H]1CC[C@H](c2ccc3[nH]c(=O)oc3c2)CC1 [Example 57, 6-(trans-4-{[3-(2,4,6-Trifluorophenyl)propyl]methylamino}cyclohexyl)-3H-benzoxazol-2-one] | 6
CN(CCCc1ccc(F)cc1F)[C@H]1CC[C@H](c2ccc3[nH]c(=O)oc3c2)CC1 [Example 24b, 6-(trans-4-{[3-(2,4-Difluorophenyl)propyl]methylamino}cyclohexyl)-3H-benzoxazol-2-one] | 14
CCN(CCCc1ccc(C(F)(F)F)cc1)[C@H]1CC[C@H](c2ccc3[nH]c(=O)oc3c2)CC1 [Example 26] | 188
Cc1cc2[nH]c(=O)oc2cc1[C@H]1CC[C@H](N(C)CCCc2ccc(F)cc2)CC1 [Example 64, 6-(4-{[3-(4-Fluorophenyl)propyl]methyl-amino}cyclohexyl)-5-methyl-3H-benzoxazol-2-one] | 45

Test system: not given
Assay: not given
Conditions: not given

SMILES | melting point [°C]
O=c1[nH]c2ccc([C@H]3CC[C@H](NCCCc4ccc(F)cc4)CC3)cc2o1 (as salt: HCl) [Example 4a, 6-{trans-4-[3-(4-Fluorophenyl)propylamino]cyclohexyl}-3H-benzoxazol-2-one] | 293 to 307
O=c1[nH]c2ccc([C@H]3CC[C@H](N(CCCc4ccc(F)cc4)Cc4ccoc4)CC3)cc2o1 (as salt: HCl) [Example 31, 6-(trans-4-{[3-(4-Fluorophenyl)propyl]furan-3-ylmethylamino}cyclohexyl)-3H-benzoxazol-2-one] | 225 to 227
CN(CCCc1ccccc1F)[C@H]1CC[C@H](c2ccc3[nH]c(=O)oc3c2)CC1 (as salt: HCl) [Example 46b, 6-(trans-4-{[3-(2-Fluorophenyl)propyl]methylamino}cyclohexyl)-3H-benzoxazol-2-one] | 242 to 246
NC(=O)CN(CCCc1ccc(F)cc1)[C@H]1CC[C@H](c2ccc3[nH]c(=O)oc3c2)CC1 (as salt: HCl) [Example 34, 2-{[3-(4-Fluorophenyl)propyl]-[4-(2-oxo-2,3-dihydro-benzoxazol-6-yl)-cyclohexyl]amino}acetamide] | 266 to 270
CN(CCOc1ccccc1)[C@H]1CC[C@H](c2ccc3[nH]c(=O)oc3c2)CC1 (as salt: HCl) [Example 22, 6-{trans-4-[Methyl(2-phenoxyethyl)amino]cyclohexyl}-3H-benzoxazol-2-one] | 277 to 285
COc1cc2[nH]c(=O)oc2cc1[C@H]1CC[C@H](N(C)CCCc2ccc(F)cc2)CC1 (as salt: salt) [Example 65, 6-(trans-4-{[3-(4-Fluorophenyl)propyl]methylamino}cyclohexyl)-5-methoxy-3H-benzoxazol-2-one] | 239 to 242
Cc1ccc(CCCN[C@H]2CC[C@@H](c3ccc4[nH]c(=O)oc4c3)CC2)cc1 (as salt: HCl) [Example 13a, 6-[cis-4-(3-p-Tolylpropylamino)cyclohexyl]-3H-benzoxazol-2-one] | 263 to 265
CN(CCCc1cccc(F)c1)[C@H]1CC[C@H](c2ccc3[nH]c(=O)oc3c2)CC1 (as salt: HCl) [Example 47b, 6-(trans-4-{[3-(3-Fluorophenyl)propyl]methylamino}cyclohexyl)-3H-benzoxazol-2-one] | 210 to 238
O=c1[nH]c2ccc([C@H]3CC[C@H](NCCCc4ccc(F)cc4)CC3)cc2[nH]1 (as salt: HCl) [Example 62, 5-{trans-4-[3-(4-Fluorophenyl)propylamino]cyclohexyl}-1,3-dihydrobenzoimidazol-2-one] | 336 to 339
CC(C)c1ccc(CCCN(C)[C@H]2CC[C@H](c3ccc4[nH]c(=O)oc4c3)CC2)cc1 (as salt: HCl) [Example 53, 6-(trans-4-{[3-(4-Isopropylphenyl)propyl]methylamino}cyclohexyl)-3H-benzoxazol-2-one] | 179 to 181
CCN([C@H]1CC[C@H](c2ccc3[nH]c(=O)oc3c2)CC1)[C@H](C)CCc1ccccc1 (as salt: HCl) [Example 27, 6-(trans-4-{Ethyl-[(R)-1-methyl-3-phenylpropyl]amino}cyclohexyl)-3H-benzoxazol-2-one] | 139 to 158
CN(CCCc1ccc(Cl)cc1Cl)[C@H]1CC[C@H](c2ccc3[nH]c(=O)oc3c2)CC1 (as salt: HCl) [Example 54, 6-(trans-4-{[3-(2,4-Dichlorophenyl)propyl]methylamino}cyclohexyl)-3H-benzoxazol-2-one] | 273 to 279
CN(CCCc1ccc(Cl)cc1F)[C@H]1CC[C@H](c2ccc3[nH]c(=O)oc3c2)CC1 (as salt: HCl) [Example 45b, 6-(trans-4-{[3-(4-Chloro-2-fluorophenyl)propyl]methylamino}cyclohexyl)-3H-benzoxazol-2-one] | 274 to 275
C=CCN(CCCc1ccc(F)cc1)[C@H]1CC[C@H](c2ccc3[nH]c(=O)oc3c2)CC1 (as salt: HCl) [Example 32, 6-(trans-4-{Allyl-[3-(4-fluorophenyl)propyl]amino}cyclohexyl)-3H-benzoxazol-2-one] | 224 to 230
CN(CCCc1ccc(C(F)(F)F)cc1)[C@H]1CC[C@H](c2ccc3[nH]c(=O)oc3c2)CC1 (as salt: HCl) [Example 23, 6-{trans-4-[Methyl-3-(4-Trifluoromethylphenyl)propylamino]cyclohexyl}-3H-benzoxazol-2-one] | 227 to 234
O=c1[nH]c2ccc([C@H]3CC[C@H](NCC[S+]([O-])c4ccccc4)CC3)cc2o1 (stereo partly drawn) (as salt: HCl) [Example 15, 6-[trans-4-(2-Benzenesulfinylethylamino)cyclohexyl]-3H-benzoxazol-2-one] | 107 to 110
O=c1[nH]c2ccc([C@H]3CC[C@H](NCCS(=O)(=O)c4ccccc4)CC3)cc2o1 (as salt: HCl) [Example 16, 6-[trans-4-(2-Benzenesulfonylethylamino)cyclohexyl]-3H-benzoxazol-2-one] | 202 to 208

From US6794402B2, “Bicyclic cyclohexylamines and their use as NMDA receptor antagonists” (Warner-Lambert Company, priority 2000, dated 2004)
